The values below come from paper PMC6496074, “The Evolution of Azole Resistance in Candida albicans Sterol 14α-Demethylase (CYP51) through Incremental Amino Acid Substitutions” (Antimicrobial Agents and Chemotherapy, 2019).

“And” between values parts separate entries of the source, which are not always exact repeats. Equal entries are not always repeated. Where only a bound is given, the exact number is not on record here.

Assay [1] relates to CaCYP51 Y132F+F145L. The assay can be described thus: CYP51 reconstitution assay. The format is biochemical, Candida albicans. The settings on record: Y132F+F145L. As to the method: (§1) Azole antifungal agents were added in 2.5 μl dimethyl sulfoxide, followed by 10 min of incubation at 37°C prior to assay initiation with 4 mM β-NADPH-Na4. The samples were then shaken for 15 min at 37°C. Sterol metabolites were recovered by extraction with ethyl acetate, followed by derivatization with 0.1 ml N,O-bis(trimethylsilyl)trifluoroacetamide (BSTFA)–trimethylchlorosilane (TMCS) (99:1) and 0.3 ml anhydrous pyridine (2 h at 80°C), prior to analysis by gas chromatography-mass spectrometry (GC-MS) ([52]). IC50 determinations were performed in duplicate.

For assay [2], the system named is CaCYP51 Y132F+K143R. In words: CYP51 reconstitution assay. The format is biochemical, Candida albicans. Conditions: Y132F+K143R. On the procedure:
as §1

For a further assay, the target named is T1, CaCYP51 D278N (Candida albicans, UniProt P10613, D278N).
T1 construct: made in house; host or cells: E. coli DH5α (pCWori+)
The assay can be described thus: Azole ligand binding (type II difference spectra). Conditions: 4 μM protein, 22°C, ± standard deviation, triplicate, read-out: dissociation constant (Kd). On the procedure: (§2) Studies of azole antifungal binding to 4 μM CaCYP51 proteins were performed as previously described ([53]) using quartz split cuvettes with a 4.5-mm light path. […] Azole antifungals were progressively titrated against the CaCYP51 proteins in 0.1 M Tris-HCl (pH 8.1) and 25% glycerol at 22°C, with equivalent volumes of dimethyl sulfoxide also being added to the CYP51-containing compartment of the reference cuvette. The absorbance difference spectra between 500 and 350 nm were determined after each incremental addition of azole, with binding saturation curves constructed from the change in the peak and trough absorbance (ΔApeak-trough) against the azole concentration. The dissociation constant (Kd) of the enzyme-azole complex for each azole was determined by nonlinear regression (Levenberg-Marquardt algorithm) using a rearrangement of the Morrison equation for tight ligand binding ([54], [55]). Tight binding is normally observed when the Kd for a ligand is similar to or lower than the concentration of the enzyme present ([56]). Where ligand binding was weak, the Michaelis-Menten equation was used to fit the data. Each binding determination was performed in triplicate. The chemical structures of the azole antifungals used in this study are shown in Fig. S5 in the supplemental material.

For another assay, the target named is T2, CaCYP51 D278N+G464S (Candida albicans, UniProt P10613, D278N/G464S).
T2 construct: made in house; host or cells: E. coli DH5α (pCWori+)
In words: Azole ligand binding (type II difference spectra). On the procedure:
as §2

For the next assay, the target named is T3, CaCYP51 G307S (Candida albicans, UniProt P10613, G307S).
T3 construct: made in house; host or cells: E. coli DH5α (pCWori+)
The assay can be described thus: Azole ligand binding (type II difference spectra). Conditions: 4 μM protein, 22°C, ± standard deviation, triplicate, read-out: dissociation constant (Kd). On the procedure: as §2

The target of the next assay is T4, CaCYP51 G307S+G450E (Candida albicans, UniProt P10613, G307S/G450E).
T4 construct: made in house; host or cells: E. coli DH5α (pCWori+)
In words: Azole ligand binding (type II difference spectra). As to the method:
as §2

The target in a further assay is T5, CaCYP51 K143R (Candida albicans, UniProt P10613, K143R).
T5 construct: made in house; host or cells: E. coli DH5α (pCWori+)
The assay can be described thus: Azole ligand binding (type II difference spectra). The settings on record: 4 μM protein, 22°C, ± standard deviation, triplicate, read-out: dissociation constant (Kd). As to the method:
as §2

The target of another assay is T6, CaCYP51 S279F (Candida albicans, UniProt P10613, S279F).
T6 construct: made in house; host or cells: E. coli DH5α (pCWori+)
In words: Azole ligand binding (type II difference spectra). The settings on record: 4 μM protein, 22°C, ± standard deviation, triplicate, read-out: dissociation constant (Kd). On the procedure:
as §2

For assay [3], the target named is T7, CaCYP51 Y132F+F145L (Candida albicans, UniProt P10613, F145L/Y132F).
T7 construct: made in house; host or cells: E. coli DH5α (pCWori+)
The assay can be described thus: Azole ligand binding (type II difference spectra). On the procedure: as §2

Assay [4] concerns the target T8, CaCYP51 Y132F+K143R (Candida albicans, UniProt P10613, K143R/Y132F).
T8 construct: made in house; host or cells: E. coli DH5α (pCWori+)
The assay can be described thus: Azole ligand binding (type II difference spectra). As to the method: as §2

The next assay has as its target T9, CaCYP51 Y132H+K143R (Candida albicans, UniProt P10613, K143R/Y132H).
T9 construct: made in house; host or cells: E. coli DH5α (pCWori+)
In words: Azole ligand binding (type II difference spectra). The settings on record: for Kd: 4 μM protein, 22°C, ± standard deviation, triplicate, read-out: dissociation constant (Kd). On the procedure:
as §2

Assay [5] addresses CaCYP51 proteins with amino acid substitutions. In words: CYP51 reconstitution assay, span over several CaCYP51 proteins. The format is biochemical, Candida albicans. On the procedure:
as §1

Setting [6] is: 4 μM protein, 22°C, ± standard deviation, triplicate, read-out: dissociation constant (Kd).

T9 sequence (P10613 whole entry, looked up, stated change not applied): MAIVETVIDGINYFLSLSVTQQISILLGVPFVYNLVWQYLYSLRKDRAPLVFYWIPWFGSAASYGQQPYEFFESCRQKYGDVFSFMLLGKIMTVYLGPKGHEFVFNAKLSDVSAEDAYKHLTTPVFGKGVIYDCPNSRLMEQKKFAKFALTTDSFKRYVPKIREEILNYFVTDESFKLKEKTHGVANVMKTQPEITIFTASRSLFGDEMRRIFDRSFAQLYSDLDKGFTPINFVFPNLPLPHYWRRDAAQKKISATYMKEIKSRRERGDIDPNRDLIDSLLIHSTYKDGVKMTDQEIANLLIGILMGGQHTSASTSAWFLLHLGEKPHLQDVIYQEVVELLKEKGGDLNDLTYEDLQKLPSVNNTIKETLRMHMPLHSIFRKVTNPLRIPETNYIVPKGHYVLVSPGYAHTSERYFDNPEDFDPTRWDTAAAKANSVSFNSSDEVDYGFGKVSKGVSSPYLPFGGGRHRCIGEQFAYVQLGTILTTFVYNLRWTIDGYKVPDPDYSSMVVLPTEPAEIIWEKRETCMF
T8 sequence (P10613 whole entry, looked up, stated change not applied): as above
T7 sequence (P10613 whole entry, looked up, stated change not applied): as above
T2 sequence (P10613 whole entry, looked up, stated change not applied): as above
T4 sequence (P10613 whole entry, looked up, stated change not applied): as above
T6 sequence (P10613 whole entry, looked up, stated change not applied): as above
T3 sequence (P10613 whole entry, looked up, stated change not applied): as above
T1 sequence (P10613 whole entry, looked up, stated change not applied): as above
T5 sequence (P10613 whole entry, looked up, stated change not applied): as above

Turning to `OC(Cn1cncn1)(Cn1cncn1)c1ccc(F)cc1F` [Fluconazole, fluconazole], the “fold increase in IC50 over wild-type enzyme” value in the assay with CaCYP51 Y132F+F145L [1] was 10 fold and 10.1 fold; in the assay with CaCYP51 Y132F+K143R [2] it was 15 fold and 15.3 fold. Further, the Kd at CaCYP51 D278N worked out at 120 ± 35 nM; at CaCYP51 D278N+G464S (setting [6]) it was 15 ± 9 nM; at CaCYP51 G307S, 133 ± 13 nM; on CaCYP51 G307S+G450E (setting [6]), 158 ± 38 nM; at CaCYP51 K143R, 118 ± 24 nM; on CaCYP51 S279F, 232 ± 36 nM. The results for the Kd at CaCYP51 Y132F+F145L [3], at CaCYP51 Y132F+K143R [4] and on CaCYP51 Y132H+K143R were 202 ± 57 nM, 15600 nM and 18100 nM, respectively. In addition, the “apparent Kd, fold lower than wild-type enzyme” value on CaCYP51 D278N+G464S worked out at 3 fold. The “Kd, fold higher than wild-type enzyme” value is 3 fold at CaCYP51 G307S+G450E and 4 fold at CaCYP51 Y132F+F145L [3] (Y132F+F145L). Moreover, the “Kd, fold larger than wild-type enzyme” value on CaCYP51 Y132F+K143R [4] (Y132F+K143R) was found to be 312 fold; at CaCYP51 Y132H+K143R, 362 fold.
As to `CCC(C)n1ncn(-c2ccc(N3CCN(c4ccc(OCC5COC(Cn6cncn6)(c6ccc(Cl)cc6Cl)O5)cc4)CC3)cc2)c1=O` (stereo not shown) [Itraconazole, itraconazole], the figures for the Kd at CaCYP51 Y132F+K143R [4] and on CaCYP51 Y132H+K143R were 127 ± 33 nM and 387 ± 117 nM, respectively. In [5] (none of the substituted CaCYP51 proteins greater than this), the “IC50 relative to that of the wild-type enzyme” value is reported as ≤ 1.6 fold.
Consider `CC[C@@H]([C@H](C)O)n1ncn(-c2ccc(N3CCN(c4ccc(OC[C@@H]5CO[C@@](Cn6cncn6)(c6ccc(F)cc6F)C5)cc4)CC3)cc2)c1=O` [Posaconazole, posaconazole], for which the “fold increase in IC50 over wild-type enzyme” value in the assay on CaCYP51 Y132F+F145L [1] amounted to 2.2 fold. Also, the Kd on CaCYP51 Y132H+K143R turned out to be 162 ± 59 nM.
As to `C[C@@H](c1ncncc1F)[C@](O)(Cn1cncn1)c1ccc(F)cc1F` [Voriconazole, voriconazole], the “Residual CYP51 activity, span over proteins” value in assay [5] (4 μM voriconazole, K143R, S279F, G450E, Y132F+K143R, Y132H+K143R, Y132F+F145L, D278N+G464S) is “over 3%”.

For orientation: Kd means the equilibrium constant for the complex coming apart.
